Experimental data reported in ChEMBL document CHEMBL1201862, “PubChem BioAssay data set” (2004).
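Assay format: 96-well plates, 48-hour exposure. GI50: concentration for 50% inhibition of growth.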 The source made the active and inactive calls. Cut-off read from the data, not from the text of the source: active = GI50 up to about 1.1 µM and inactive = higher.

Columns and labels:
Test in all cases: NCI tumour cell line growth inhibition, 48 h
CAKI-1 = tested on: CAKI-1
HCC 2998 = tested on: HCC 2998
HT-29 = tested on: HT-29
KM12 = tested on: KM12
LOX IMVI = tested on: LOX IMVI
M14 = tested on: M14
NCI-H23 = tested on: NCI-H23
NCI-H460 = tested on: NCI-H460
PC-3 = tested on: PC-3
SF-268 = tested on: SF-268
SF-295 = tested on: SF-295
SNB-19 = tested on: SNB-19
TK-10 = tested on: TK-10
UO-31 = tested on: UO-31
CCRF-CEM = tested on: CCRF-CEM
HCT-116 = tested on: HCT-116
K562 = tested on: K562
MOLT-4 = tested on: MOLT-4
SR = tested on: SR

Measured: GI50

CC12C=CC(C)(C3C(=O)C4C(C(=O)C31)C1(C)C=CC4(C)[S+]1[O-])[S+]2[O-] (centres undefined)
inactive: CAKI-1 > 100 µM | HCC 2998 > 100 µM | HT-29 47.6 µM | KM12 > 100 µM | LOX IMVI 81.5 µM | M14 > 100 µM | NCI-H23 > 100 µM | NCI-H460 53.1 µM | PC-3 > 100 µM | SF-268 > 100 µM | SF-295 > 100 µM | SNB-19 50.6 µM | TK-10 > 100 µM | UO-31 > 100 µM

CCO/C=C/C(C)C1(C(=O)OCC)CCCCC1=O (centres undefined)
inactive: CAKI-1 > 100 µM | CCRF-CEM > 100 µM | HCC 2998 > 100 µM | HCT-116 > 100 µM | HT-29 > 100 µM | K562 > 100 µM | KM12 > 100 µM | LOX IMVI 45.9 µM | M14 > 100 µM | MOLT-4 > 100 µM | NCI-H23 > 100 µM | NCI-H460 > 100 µM | SF-268 > 100 µM | SF-295 > 100 µM | SNB-19 > 100 µM | SR > 100 µM | TK-10 > 100 µM | UO-31 > 100 µM

Nc1ncnc2c1sc(=S)n2-c1ccccc1
inactive: CAKI-1 > 100 µM | CCRF-CEM > 100 µM | HCC 2998 > 100 µM | HCT-116 > 100 µM | HT-29 > 100 µM | K562 > 100 µM | KM12 > 100 µM | LOX IMVI > 100 µM | M14 > 100 µM | MOLT-4 > 100 µM | NCI-H23 > 100 µM | NCI-H460 > 100 µM | SF-268 > 100 µM | SF-295 > 100 µM | SNB-19 > 100 µM | SR > 100 µM | TK-10 > 100 µM | UO-31 89.3 µM

Oc1ccc2c3c1OC1C(=NN=C4CCC5(O)C6Cc7ccc(O)c8c7C5(CCN6CC5CC5)C4O8)CCC4(O)C(C2)N(CC2CC2)CCC314 (centres undefined)
inactive: CAKI-1 > 100 µM | CCRF-CEM 22.9 µM | HCC 2998 21.5 µM | HCT-116 16.6 µM | HT-29 17.1 µM | K562 17.2 µM | KM12 19.8 µM | LOX IMVI 20 µM | M14 18.3 µM | MOLT-4 23.7 µM | NCI-H23 > 57.5 µM | NCI-H460 21.6 µM | SF-268 > 50.4 µM | SF-295 17 µM | SNB-19 52.7 µM | SR 26.7 µM | TK-10 > 46.2 µM | UO-31 > 100 µM

Cc1ccc(NC(=O)C(=O)C2C(=O)C3=C(CC2(C)C)NC2C=CC=CC2S3)c(C)c1 (centres undefined)
inactive: CAKI-1 > 100 µM | CCRF-CEM > 100 µM | HCC 2998 > 100 µM | HCT-116 > 100 µM | HT-29 > 100 µM | KM12 > 100 µM | LOX IMVI > 100 µM | MOLT-4 99.8 µM | NCI-H23 > 100 µM | NCI-H460 > 100 µM | PC-3 > 100 µM | SF-268 36.8 µM | SF-295 > 100 µM | SNB-19 > 100 µM | TK-10 > 100 µM | UO-31 48.2 µM

CCCCN1CCC(O)(c2cc(C(=O)O)[nH]c2-c2cc(C)no2)C1=O (centres undefined)
inactive: CAKI-1 > 100 µM | HCC 2998 > 100 µM | HCT-116 > 100 µM | HT-29 > 100 µM | K562 > 100 µM | KM12 > 100 µM | M14 > 100 µM | MOLT-4 > 100 µM | NCI-H23 > 100 µM | NCI-H460 > 100 µM | PC-3 > 100 µM | SF-268 > 100 µM | SF-295 > 100 µM | SNB-19 > 100 µM | TK-10 > 100 µM | UO-31 > 100 µM

O=c1ccc(-c2ccc(-n3ccnc3)cc2)nn1CCO
inactive: CAKI-1 > 100 µM | CCRF-CEM > 100 µM | HCC 2998 > 100 µM | HCT-116 > 100 µM | HT-29 > 100 µM | KM12 > 100 µM | M14 > 100 µM | MOLT-4 > 100 µM | NCI-H23 > 100 µM | NCI-H460 > 100 µM | PC-3 > 100 µM | SF-268 > 100 µM | SF-295 > 100 µM | SNB-19 > 100 µM | SR > 100 µM | TK-10 > 100 µM | UO-31 > 100 µM

Cc1ccc(-n2c(C)n[nH]c2=O)cc1
inactive: CCRF-CEM > 100 µM | HCC 2998 > 100 µM | HCT-116 > 100 µM | HT-29 > 100 µM | K562 > 100 µM | KM12 > 100 µM | LOX IMVI > 100 µM | M14 > 100 µM | MOLT-4 > 100 µM | NCI-H23 > 100 µM | PC-3 > 100 µM | SF-268 > 100 µM | SF-295 > 100 µM | SNB-19 > 100 µM | SR > 100 µM | TK-10 > 100 µM | UO-31 > 100 µM
